In EP3345917A1, “ANTIPROTOZOAL COMPOUNDS” (Bacoba AG, priority 2017, dated 2018):
Non-standard residues stand in square brackets, D forms with d. Residues, ends and D or L forms follow the SMILES beside them. *: point of attachment. Benzenesulfonyl(4-F) = O=S(=O)(c1ccc(F)cc1)*; NH((S)CH(Me)CH2NMe2) = C[C@@H](CN(C)C)N*; Gly(octyl) = CCCCCCCC[C@H](N)C(=O)O; hCha = N[C@@H](CCC1CCCCC1)C(=O)O; X3 = O=C(c1coc(-c2ccccc2)n1)*; X5 = CN(C)[C@H]1CCCC[C@@H]1N*; NH(CH2)3NMe2 = CN(C)CCCN*; X8 = C[C@@H](CN1CCCCC1)N*; Hexanoyl = CCCCCC(=O)*; Aib = CC(C)(N)C(=O)O; X7 = CN(C)CC(C)(C)N*; X6 = CCCN(CCC)CCN*; X9 = c1ccn(CCN*)c1; βAla = NCCC(=O)O

Key:
[1] = test system: intracellular Leishmania donovani (L.don. InMac); experiment: Intracellular Leishmania donovani assay (L.don. InMac); type: cell-based; conditions: In vitro inhibition
Excerpt: (§1) Tests were done in triplicate.

[2] = test system: Trypanosoma cruzi trypomastigote forms (Tulahuen strain); experiment: Intracellular Trypanosoma cruzi assay in L6-cells, beta-galactosidase/CPRG readout; type: cell-based; conditions: In vitro inhibition, read-out: T.cruzi.
Procedure, shortened: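 L6 rat myoblasts infected with Tulahuen C2C4 LacZ T. cruzi; after incubation, CPRG/Nonidet substrate added and colour developed 2–6 h. Absorbance at 540 nm; IC50 calculated; triplicate tests.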

[3] = test system: Axenically grown Leishmania donovani amastigotes (strain MHOM/ET/67/L82); experiment: Axenic Leishmania donovani amastigote resazurin assay; type: cell-based; conditions: In vitro inhibition, read-out: L.don. ax
Procedure, shortened: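 Strain MHOM/ET/67/L82 amastigotes grown axenically and tested in triplicate by resazurin assay. Plates developed 2-4 hours, fluorescence read at 536 nm excitation/588 nm emission and expressed as percentage of negative control.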

[4] = test system: Trypanosoma brucei rhodesiense (STIB 900 strain); experiment: Alamar Blue assay against Trypanosoma brucei rhodesiense grown in axenic medium; type: cell-based; conditions: In vitro inhibition, read-out: T.b.rhod.
Procedure, shortened: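 T. b. rhodesiense STIB 900 cultured in axenic medium and exposed to samples in an Alamar Blue viability assay, run in triplicate. IC50 calculated from the readout; melarsoprol served as reference drug.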

Plasmodium falciparum = experiment: 3H-hypoxanthine incorporation assay against Plasmodium falciparum; type: cell-based; conditions: In vitro inhibition, read-out: P.falc NF5
Protocol: as §1
IC50 values were calculated by linear interpolation.

[5] = Cytotoxicity assay on L6-cells (Alamar Blue); conditions: rat, Cytotox L6, Cytotoxicity against rat myoblast cells (L6)
Protocol: Tests were done in triplicate. IC50 values against the parasites as well as cytotoxic effects against rat myoblast (L6-cells) were determined by serial dilution and repeated twice.
After 68 h of incubation under humidified 5% CO2 atmosphere, 10 µl of the Alamar blue marker was added to all wells. The plates were incubated for an additional 2 h. […] The IC50S were calculated by Softmax Pro software (Molecular Devices Cooperation, Sunnyvale, CA). […] Cytotoxicity was measured against rat myoblast cells (Cytotox L6).

Structure (SMILES) | IC50 [1] | IC50 [2] | IC50 [3] | IC50 [4] | IC50 (Plasmodium falciparum) | IC50 at 70 h [5]
CCCCCCCC[C@H](NC(=O)[C@@H]1CCCN1C(=O)CCCCC)C(=O)N[C@@H](CC(C)C)C(=O)NC(C)(C)C(=O)N[C@@H](CC(C)C)C(=O)N[C@@H](CC(C)C)C(=O)NC(C)(C)C(=O)NC(C)(C)C(=O)NCCC(=O)N[C@H]1CCCC[C@@H]1N(C)C [Compound 5883, (2S)-N-[(1S)-1-[(1-{[(1S)-1-{[(1S)-1-{[1-({1-[(2-{[(1S,2S)-2-(dimethylamino)cyclohexyl]carbamoyl}ethyl)carbamoyl]-1-methylethyl}carbamoyl)-1-methylethyl]carbamoyl}-3-methylbutyl]carbamoyl}-3-methylbutyl]carbamoyl}-1-methylethyl)carbamoyl]-3-methylbutyl]-2-{[(2S)-1-hexanoylpyrrolidin-2-yl]formamido}decanamide] (Hexanoyl-P[Gly(octyl)]L[Aib]LL[Aib][Aib][βAla]-X5) | 131 nM | 460 nM | 19800 nM | 41300 nM | 25300 nM | 1480 nM
CCCCCCCC[C@H](NC(=O)[C@@H]1CCCN1C(=O)CCCCC)C(=O)N[C@@H](CC(C)C)C(=O)NC(C)(C)C(=O)N[C@@H](CC(C)C)C(=O)N[C@@H](CC(C)C)C(=O)NC(C)(C)C(=O)NC(C)(C)C(=O)NCCC(=O)N[C@@H](C)CN1CCCCC1 [Compound 5886, (2S)-2-{[(2S)-1-hexanoylpyrrolidin-2-yl]formamido}-N-[(1S)-3-methyl-1-[(1-methyl-1-{[(1S)-3-methyl-1-{[(1S)-3-methyl-1-{[1-methyl-1-({1-methyl-1-[(2-{[(2S)-1-(piperidin-1-yl)propan-2-yl]carbamoyl}ethyl)carbamoyl]ethyl}carbamoyl)ethyl]carbamoyl}butyl]carbamoyl}butyl]carbamoyl}ethyl)carbamoyl]butyl]decanamide] (Hexanoyl-P[Gly(octyl)]L[Aib]LL[Aib][Aib][βAla]-X8) | 602 nM | 4260 nM | 190 nM | 496 nM | 36100 nM | 938 nM
CCCCCCCC[C@H](NC(=O)[C@@H]1CCCN1C(=O)CCCCC)C(=O)N[C@@H](CC(C)C)C(=O)NC(C)(C)C(=O)N[C@@H](CC(C)C)C(=O)N[C@@H](CC(C)C)C(=O)NC(C)(C)C(=O)NC(C)(C)C(=O)NCCC(=O)NCCn1cccc1 [Compound 5887, (2S)-2-{[(2S)-1-hexanoylpyrrolidin-2-yl]formamido}-N-[(1S)-3-methyl-1-[(1-methyl-1-{[(1S)-3-methyl-1-{[(1S)-3-methyl-1-{[1-methyl-1-({1-methyl-1-[(2-{[2-(1H-pyrrol-1-yl)ethyl]carbamoyl}ethyl)carbamoyl]ethyl}carbamoyl)ethyl]carbamoyl}butyl]carbamoyl}butyl]carbamoyl}ethyl)carbamoyl]butyl]decanamide] (Hexanoyl-P[Gly(octyl)]L[Aib]LL[Aib][Aib][βAla]-X9) | 41.7 nM | 262 nM | 35500 nM | 46800 nM | 42700 nM | 479 nM
CCCCCCCC[C@H](NC(=O)[C@@H]1CCCN1C(=O)CCCCC)C(=O)N[C@@H](CC(C)C)C(=O)NC(C)(C)C(=O)N[C@@H](CC(C)C)C(=O)N[C@@H](CC(C)C)C(=O)NC(C)(C)C(=O)NC(C)(C)C(=O)NCCC(=O)NCCN(CCC)CCC [Compound 5888, (2S)-N-[(1S)-1-[(1-{[(1S)-1-{[(1S)-1-{[1-({1-[(2-{[2-(dipropylamino)ethyl]carbamoyl}ethyl)carbamoyl]-1-methylethyl}carbamoyl)-1-methylethyl]carbamoyl}-3-methylbutyl]carbamoyl}-3-methylbutyl]carbamoyl}-1-methylethyl)carbamoyl]-3-methylbutyl]-2-{[(2S)-1-hexanoylpyrrolidin-2-yl]formamido}decanamide] (Hexanoyl-P[Gly(octyl)]L[Aib]LL[Aib][Aib][βAla]-X6) | 14.8 nM | 37.5 nM | 22700 nM | 18000 nM | 35900 nM | 446 nM
CCCCCCCC[C@H](NC(=O)[C@@H]1CCCN1C(=O)CCCCC)C(=O)N[C@@H](CC(C)C)C(=O)NC(C)(C)C(=O)N[C@@H](CC(C)C)C(=O)N[C@@H](CC(C)C)C(=O)NC(C)(C)C(=O)NC(C)(C)C(=O)NCCC(=O)NC(C)(C)CN(C)C [Compound 5889, (2S)-N-[(1S)-1-[(1-{[(1S)-1-{[(1S)-1-{[1-({1-[(2-{[1-(dimethylamino)-2-methylpropan-2-yl]carbamoyl}ethyl)carbamoyl]-1-methylethyl}carbamoyl)-1-methylethyl]carbamoyl}-3-methylbutyl]carbamoyl}-3-methylbutyl]carbamoyl}-1-methylethyl)carbamoyl]-3-methylbutyl]-2-{[(2S)-1-hexanoylpyrrolidin-2-yl]formamido}decanamide] (Hexanoyl-P[Gly(octyl)]L[Aib]LL[Aib][Aib][βAla]-X7) | 86.5 nM | 248 nM | 11100 nM | 15.9 nM | 199 nM | 959 nM
CCCCCCCC[C@H](NC(=O)[C@@H]1CCCN1C(=O)CCCCC)C(=O)N[C@@H](CC(C)C)C(=O)NC(C)(C)C(=O)N[C@@H](CC(C)C)C(=O)N[C@@H](CC(C)C)C(=O)NC(C)(C)C(=O)NC(C)(C)C(=O)NCCC(=O)NCCCN(C)C [Compound 5890, (2S)-N-[(1S)-1-[(1-{[(1S)-1-{[(1S)-1-{[1-({1-[(2-{[3-(dimethylamino)propyl]carbamoyl}ethyl)carbamoyl]-1-methylethyl}carbamoyl)-1-methylethyl]carbamoyl}-3-methylbutyl]carbamoyl}-3-methylbutyl]carbamoyl}-1-methylethyl)carbamoyl]-3-methylbutyl]-2-{[(2S)-1-hexanoylpyrrolidin-2-yl]formamido}decanamide] (Hexanoyl-P[Gly(octyl)]L[Aib]LL[Aib][Aib][βAla]-{NH(CH2)3NMe2}) | 42500 nM | 44 nM | 0.7 nM | 44200 nM | 0.2 nM | 592 nM
CCCCCCCC[C@H](NC(=O)[C@@H]1CCCN1S(=O)(=O)c1ccc(F)cc1)C(=O)N[C@@H](CC(C)C)C(=O)NC(C)(C)C(=O)N[C@@H](CC(C)C)C(=O)N[C@@H](CC(C)C)C(=O)NC(C)(C)C(=O)NC(C)(C)C(=O)NCCC(=O)N[C@@H](C)CN(C)C [Compound 5935, (2S)-N-[(1S)-1-[(1-{[(1S)-1-{[(1S)-1-{[1-({1-[(2-{[(2S)-1-(dimethylamino)propan-2-yl]carbamoyl}ethyl)carbamoyl]-1-methylethyl}carbamoyl)-1-methylethyl]carbamoyl}-3-methylbutyl]carbamoyl}-3-methylbutyl]carbamoyl}-1-methylethyl)carbamoyl]-3-methylbutyl]-2-{[(2S)-1-(4-fluorobenzenesulfonyl)pyrrolidin-2-yl]formamido}decanamide] ({Benzenesulfonyl(4-F)}-P[Gly(octyl)]L[Aib]LL[Aib][Aib][βAla]-{NH((S)CH(Me)CH2NMe2)}) | < 33.5 nM | 33.5 nM | 14500 nM | 42400 nM | 47300 nM | 384 nM
CCCCCC(=O)N1CCC[C@H]1C(=O)N[C@@H](CCC1CCCCC1)C(=O)N[C@@H](CC(C)C)C(=O)NC(C)(C)C(=O)N[C@@H](CC(C)C)C(=O)N[C@@H](CC(C)C)C(=O)NC(C)(C)C(=O)NC(C)(C)C(=O)NCCC(=O)N[C@@H](C)CN(C)C [Compound 5942, (2S)-2-[(2S)-4-cyclohexyl-2-{[(2S)-1-hexanoylpyrrolidin-2-yl]formamido}butanamido]-N-(1-{[(1S)-1-{[(1S)-1-{[1-({1-[(2-{[(2S)-1-(dimethylamino)propan-2-yl]carbamoyl}ethyl)carbamoyl]-1-methylethyl}carbamoyl)-1-methylethyl]carbamoyl}-3-methylbutyl]carbamoyl}-3-methylbutyl]carbamoyl}-1-methylethyl)-4-methylpentanamide] (Hexanoyl-P[hCha]L[Aib]LL[Aib][Aib][βAla]-{NH((S)CH(Me)CH2NMe2)}) | < 35.4 nM | 4 nM | 42600 nM | 0.3 nM | 0.9 nM | 148 nM
CCCCCCCC[C@H](NC(=O)c1coc(-c2ccccc2)n1)C(=O)N[C@@H](CC(C)C)C(=O)NC(C)(C)C(=O)N[C@@H](CC(C)C)C(=O)N[C@@H](CC(C)C)C(=O)NC(C)(C)C(=O)NC(C)(C)C(=O)NCCC(=O)N[C@@H](C)CN(C)C [Compound 5943, (2S)-N-[(1S)-1-[(1-{[(1S)-1-{[(1S)-1-{[1-({1-[(2-{[(2S)-1-(dimethylamino)propan-2-yl]carbamoyl}ethyl)carbamoyl]-1-methylethyl}carbamoyl)-1-methylethyl]carbamoyl}-3-methylbutyl]carbamoyl}-3-methylbutyl]carbamoyl}-1-methylethyl)carbamoyl]-3-methylbutyl]-2-[(2-phenyl-1,3-oxazol-4-yl)formamido]decanamide] (X3-[Gly(octyl)]L[Aib]LL[Aib][Aib][βAla]-{NH((S)CH(Me)CH2NMe2)}) | < 36.1 nM | 156 nM | 18700 nM | 0.5 nM | 15.3 nM | 552 nM
